Values joined by “and” are separate entries in the source; they are usually repeats but may differ in a detail not shown here. Equal values may be shown once.
Key:
[1] = molecular target: CYP2C19 (Homo sapiens, UniProt P33261); experiment: Reversible CYP inhibition in human liver microsomes; settings: human, microsomes, pH 7.4, Percent of Control Activity; for activity at 20.5 µM: CYP 2C19, 20.5 µM; for activity at 43.8 µM: CYP 2C19, 43.8 µM; for activity at 93.5 µM: CYP 2C19, 93.5 µM; for activity at 200 µM: CYP 2C19, 200 µM
[2] = system: CYP3A4/5; experiment: as above; settings: for IC50: at approximately KM

CYP2C19, sequence (P33261 whole entry): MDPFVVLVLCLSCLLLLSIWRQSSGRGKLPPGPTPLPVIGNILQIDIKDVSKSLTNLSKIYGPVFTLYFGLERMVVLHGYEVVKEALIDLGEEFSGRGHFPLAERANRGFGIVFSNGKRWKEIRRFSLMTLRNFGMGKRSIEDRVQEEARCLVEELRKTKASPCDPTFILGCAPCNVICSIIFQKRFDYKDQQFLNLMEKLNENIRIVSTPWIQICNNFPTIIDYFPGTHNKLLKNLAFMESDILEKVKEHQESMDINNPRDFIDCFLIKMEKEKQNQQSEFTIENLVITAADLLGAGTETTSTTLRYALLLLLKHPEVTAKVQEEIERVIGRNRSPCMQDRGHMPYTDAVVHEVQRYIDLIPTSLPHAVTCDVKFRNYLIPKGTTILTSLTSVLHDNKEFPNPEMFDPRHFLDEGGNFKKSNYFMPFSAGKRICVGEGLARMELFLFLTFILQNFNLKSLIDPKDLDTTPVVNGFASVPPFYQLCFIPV

## COc1cccc2[nH]c(C(=O)N[C@@H](CC(C)C)C(=O)N[C@@H](C[C@@H]3CCNC3=O)C(=O)CO)cc12 [PF-00835231]
[1]; CYP 2C19, 4.48 µM, Zero-Minute Preincubation
  activity at 4.48 µM: 83.6%
[1]; 30-Minute Preincubation
  activity at 20.5 µM: 83.9%
  activity at 43.8 µM: 81.3%
  activity at 93.5 µM: 74.5%
  activity at 200 µM: 64.9%
[1]; Zero-Minute Preincubation
  activity at 20.5 µM: 86.2%
  activity at 43.8 µM: 85%
  activity at 93.5 µM: 76.8%
  activity at 200 µM: 69.2%
[2]; CYP 3A4/5 (mdz), 0.214 µM, 30-Minute Preincubation
  Percent of Control Activity: 105.3%
[2]; CYP 3A4/5 (mdz), 0.979 µM, 30-Minute Preincubation
  Percent of Control Activity: 106.9%
[2]; CYP 3A4/5 (mdz), 2.09 µM, 30-Minute Preincubation
  Percent of Control Activity: 110.4%
[2]; CYP 3A4/5 (mdz), 4.48 µM, 30-Minute Preincubation
  Percent of Control Activity: 94.3%
[2]; CYP 3A4/5 (mdz), 20.5 µM, 30-Minute Preincubation
  Percent of Control Activity: 83.5%
[2]; CYP 3A4/5 (mdz), 20.5 µM, Zero-Minute Preincubation
  Percent of Control Activity: 117.3%
[2]; CYP 3A4/5 (mdz), 43.8 µM, 30-Minute Preincubation
  Percent of Control Activity: 84.8%
[2]; CYP 3A4/5 (mdz), 93.5 µM, 30-Minute Preincubation
  Percent of Control Activity: 72.6%
[2]; CYP 3A4/5 (mdz), 200 µM, 30-Minute Preincubation
  Percent of Control Activity: 50.6% and 46.7%
[2]; CYP 3A4/5 (mdz), 200 µM, Zero-Minute Preincubation
  Percent of Control Activity: 109.5%
[2]; CYP 3A4/5 (tst), 0.214 µM, 30-Minute Preincubation
  Percent of Control Activity: 110.1%
[2]; CYP 3A4/5 (tst), 0.214 µM, Zero-Minute Preincubation
  Percent of Control Activity: 116.0% and 141.9%
[2]; CYP 3A4/5 (tst), 0.979 µM, 30-Minute Preincubation
  Percent of Control Activity: 122.3%
[2]; CYP 3A4/5 (tst), 0.979 µM, Zero-Minute Preincubation
  Percent of Control Activity: 120.0% and 100.0%
[2]; CYP 3A4/5 (tst), 2.09 µM, 30-Minute Preincubation
  Percent of Control Activity: 146.9% and 144.6% and 107.9%
[2]; CYP 3A4/5 (tst), 2.09 µM, Zero-Minute Preincubation
  Percent of Control Activity: 128.1%
[2]; CYP 3A4/5 (tst), 4.48 µM, 30-Minute Preincubation
  Percent of Control Activity: 142.0% and 164.4%
[2]; CYP 3A4/5 (tst), 4.48 µM, Zero-Minute Preincubation
  Percent of Control Activity: 92.4% and 117.7% and 97.0%
[2]; CYP 3A4/5 (tst), 20.5 µM, 30-Minute Preincubation
  Percent of Control Activity: 84.0%
[2]; CYP 3A4/5 (tst), 20.5 µM, Zero-Minute Preincubation
  Percent of Control Activity: 71.0% and 70.3%
[2]; CYP 3A4/5 (tst), 43.8 µM, 30-Minute Preincubation
  Percent of Control Activity: 71.6%
[2]; CYP 3A4/5 (tst), 43.8 µM, Zero-Minute Preincubation
  Percent of Control Activity: 96.7%
[2]; CYP 3A4/5 (tst), 93.5 µM, 30-Minute Preincubation
  Percent of Control Activity: 42.9% and 41.8%
[2]; CYP 3A4/5 (tst), 93.5 µM, Zero-Minute Preincubation
  Percent of Control Activity: 60.1%
[2]; CYP 3A4/5 (tst), 200 µM, 30-Minute Preincubation
  Percent of Control Activity: 26.6%
[2]; CYP 3A4/5 (tst), 200 µM, Zero-Minute Preincubation
  Percent of Control Activity: 39.6% and 35.7%
[2]; human, human liver microsomes, pH 7.4, probe midazolam (1′-hydroxylation), IC50, Midazolam 1′-hydroxylation, T0
  IC50: > 200 µM
[2]; human, human liver microsomes, pH 7.4, probe midazolam (1′-hydroxylation), IC50, Midazolam 1′-hydroxylation, T30
  IC50: > 200 µM
[2]; human, human liver microsomes, pH 7.4, probe midazolam (mdz), Percent of Control Activity, CYP 3A4/5 (mdz), 0.1 µM, 30-Minute Preincubation
  activity at 0.1 µM: 113%
[2]; human, human liver microsomes, pH 7.4, probe midazolam (mdz), Percent of Control Activity, CYP 3A4/5 (mdz), 0.214 µM, 30-Minute Preincubation
  activity at 0.214 µM: 111%
[2]; human, human liver microsomes, pH 7.4, probe midazolam (mdz), Percent of Control Activity, CYP 3A4/5 (mdz), 0.214 µM, Zero-Minute Preincubation
  activity at 0.214 µM: 107%
[2]; human, human liver microsomes, pH 7.4, probe midazolam (mdz), Percent of Control Activity, CYP 3A4/5 (mdz), 0.979 µM, 30-Minute Preincubation
  activity at 0.979 µM: 113%
[2]; human, human liver microsomes, pH 7.4, probe midazolam (mdz), Percent of Control Activity, CYP 3A4/5 (mdz), 0.979 µM, Zero-Minute Preincubation
  activity at 0.979 µM: 115%
[2]; human, human liver microsomes, pH 7.4, probe midazolam (mdz), Percent of Control Activity, CYP 3A4/5 (mdz), 2.09 µM, 30-Minute Preincubation
  activity at 2.09 µM: 112%
[2]; human, human liver microsomes, pH 7.4, probe midazolam (mdz), Percent of Control Activity, CYP 3A4/5 (mdz), 2.09 µM, Zero-Minute Preincubation
  activity at 2.09 µM: 100%
[2]; human, human liver microsomes, pH 7.4, probe midazolam (mdz), Percent of Control Activity, CYP 3A4/5 (mdz), 4.48 µM, 30-Minute Preincubation
  activity at 4.48 µM: 106%
[2]; human, human liver microsomes, pH 7.4, probe midazolam (mdz), Percent of Control Activity, CYP 3A4/5 (mdz), 43.8 µM, 30-Minute Preincubation
  activity at 43.8 µM: 88.1%
[2]; human, human liver microsomes, pH 7.4, probe midazolam (mdz), Percent of Control Activity, CYP 3A4/5 (mdz), 93.5 µM, 30-Minute Preincubation
  activity at 93.5 µM: 72.3%
[2]; human, human liver microsomes, pH 7.4, probe midazolam (mdz), Percent of Control Activity, CYP 3A4/5 (mdz), 93.5 µM, Zero-Minute Preincubation
  activity at 93.5 µM: 113%
[2]; human, human liver microsomes, pH 7.4, probe midazolam (mdz), Percent of Control Activity, CYP 3A4/5 (mdz), 200 µM, 30-Minute Preincubation
  activity at 200 µM: 54.3%
[2]; human, human liver microsomes, pH 7.4, probe midazolam (mdz), Percent of Control Activity, CYP 3A4/5 (mdz), 200 µM, Zero-Minute Preincubation
  activity at 200 µM: 107%
[2]; human, human liver microsomes, pH 7.4, probe testosterone (6β-hydroxylation), IC50 (confidence interval), Testosterone 6β-hydroxylation, T0
  IC50: 108 µM
[2]; human, human liver microsomes, pH 7.4, probe testosterone (6β-hydroxylation), IC50 (confidence interval), Testosterone 6β-hydroxylation, T30
  IC50: 62.4 µM
[2]; human, human liver microsomes, pH 7.4, probe testosterone (tst), Percent of Control Activity, CYP 3A4/5 (tst), 0.1 µM, 30-Minute Preincubation
  activity at 30 min, 0.1 µM: 92.1%
[2]; human, human liver microsomes, pH 7.4, probe testosterone (tst), Percent of Control Activity, CYP 3A4/5 (tst), 0.1 µM, Zero-Minute Preincubation
  activity at 0.1 µM: 88.6%
[2]; human, human liver microsomes, pH 7.4, probe testosterone (tst), Percent of Control Activity, CYP 3A4/5 (tst), 0.214 µM, 30-Minute Preincubation
  activity at 30 min, 0.214 µM: 115%
[2]; human, human liver microsomes, pH 7.4, probe testosterone (tst), Percent of Control Activity, CYP 3A4/5 (tst), 0.979 µM, 30-Minute Preincubation
  activity at 30 min, 0.979 µM: 116%
[2]; human, human liver microsomes, pH 7.4, probe testosterone (tst), Percent of Control Activity, CYP 3A4/5 (tst), 0.979 µM, Zero-Minute Preincubation
  activity at 0 min, 0.979 µM: 114%
[2]; human, human liver microsomes, pH 7.4, probe testosterone (tst), Percent of Control Activity, CYP 3A4/5 (tst), 2.09 µM, Zero-Minute Preincubation
  activity at 0 min, 2.09 µM: 109%
[2]; human, human liver microsomes, pH 7.4, probe testosterone (tst), Percent of Control Activity, CYP 3A4/5 (tst), 43.8 µM, 30-Minute Preincubation
  activity at 43.8 µM: 73.4%
[2]; human, human liver microsomes, pH 7.4, probe testosterone (tst), Percent of Control Activity, CYP 3A4/5 (tst), 43.8 µM, Zero-Minute Preincubation
  activity at 43.8 µM: 75.3%
[2]; human, human liver microsomes, pH 7.4, probe testosterone (tst), Percent of Control Activity, CYP 3A4/5 (tst), 93.5 µM, 30-Minute Preincubation
  activity at 93.5 µM: 37.7%
[2]; human, human liver microsomes, pH 7.4, probe testosterone (tst), Percent of Control Activity, CYP 3A4/5 (tst), 93.5 µM, Zero-Minute Preincubation
  activity at 93.5 µM: 54.9%
[2]; human, human liver microsomes, pH 7.4, probe testosterone (tst), Percent of Control Activity, CYP 3A4/5 (tst), 200 µM, 30-Minute Preincubation
  activity at 200 µM: 15.1%
[2]; human, human liver microsomes, pH 7.4, probe testosterone (tst), Percent of Control Activity, CYP 3A4/5 (tst), 200 µM, Zero-Minute Preincubation
  activity at 200 µM: 36.4%

— article PMC8523698, “Preclinical characterization of an intravenous coronavirus 3CL protease inhibitor for the potential treatment of COVID19” (Nature Communications, 2021)
